Test results: patent publication US20230295119A1, “SUBSTITUTED PYRIDINES FOR THE TREATMENT OF INFLAMMATORY DISEASES” (GOSSAMER BIO SERVICES, INC., priority 2020, published 2023)

Tests used:
TYK2 JH2 domain = TYK2 JH2 domain (Homo sapiens (Human), UniProt P29597); assay: TYK2 JH2 NanoBRET assay; type: binding; details: Table 20, read-out: TYK2 IC50
Method in brief: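 Tracer displacement measured by BRET ratio (acceptor over donor) in live HEK293T cells transfected with a NanoLuc-tagged TYK2 JH2 construct; cells co-exposed to test compound and 0.5 µM final K10 tracer for 2 h before substrate/extracellular inhibitor addition.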

human JAK1 = human JAK1 (Homo sapiens (Human), UniProt P23458); assay: JAK1 TR-FRET kinase assay; type: biochemical; details: TR-FRET, JAK1 2.5 nM
human JAK2 = human JAK2 (Homo sapiens (Human), UniProt O60674); assay: JAK2 TR-FRET kinase assay; type: biochemical; details: JAK2 0.025 nM
human JAK3 = human JAK3 (Homo sapiens (Human), UniProt P52333); assay: JAK3 TR-FRET kinase assay; type: biochemical; details: JAK3 0.0125 nM
human JAK3, sequence (P52333 whole entry): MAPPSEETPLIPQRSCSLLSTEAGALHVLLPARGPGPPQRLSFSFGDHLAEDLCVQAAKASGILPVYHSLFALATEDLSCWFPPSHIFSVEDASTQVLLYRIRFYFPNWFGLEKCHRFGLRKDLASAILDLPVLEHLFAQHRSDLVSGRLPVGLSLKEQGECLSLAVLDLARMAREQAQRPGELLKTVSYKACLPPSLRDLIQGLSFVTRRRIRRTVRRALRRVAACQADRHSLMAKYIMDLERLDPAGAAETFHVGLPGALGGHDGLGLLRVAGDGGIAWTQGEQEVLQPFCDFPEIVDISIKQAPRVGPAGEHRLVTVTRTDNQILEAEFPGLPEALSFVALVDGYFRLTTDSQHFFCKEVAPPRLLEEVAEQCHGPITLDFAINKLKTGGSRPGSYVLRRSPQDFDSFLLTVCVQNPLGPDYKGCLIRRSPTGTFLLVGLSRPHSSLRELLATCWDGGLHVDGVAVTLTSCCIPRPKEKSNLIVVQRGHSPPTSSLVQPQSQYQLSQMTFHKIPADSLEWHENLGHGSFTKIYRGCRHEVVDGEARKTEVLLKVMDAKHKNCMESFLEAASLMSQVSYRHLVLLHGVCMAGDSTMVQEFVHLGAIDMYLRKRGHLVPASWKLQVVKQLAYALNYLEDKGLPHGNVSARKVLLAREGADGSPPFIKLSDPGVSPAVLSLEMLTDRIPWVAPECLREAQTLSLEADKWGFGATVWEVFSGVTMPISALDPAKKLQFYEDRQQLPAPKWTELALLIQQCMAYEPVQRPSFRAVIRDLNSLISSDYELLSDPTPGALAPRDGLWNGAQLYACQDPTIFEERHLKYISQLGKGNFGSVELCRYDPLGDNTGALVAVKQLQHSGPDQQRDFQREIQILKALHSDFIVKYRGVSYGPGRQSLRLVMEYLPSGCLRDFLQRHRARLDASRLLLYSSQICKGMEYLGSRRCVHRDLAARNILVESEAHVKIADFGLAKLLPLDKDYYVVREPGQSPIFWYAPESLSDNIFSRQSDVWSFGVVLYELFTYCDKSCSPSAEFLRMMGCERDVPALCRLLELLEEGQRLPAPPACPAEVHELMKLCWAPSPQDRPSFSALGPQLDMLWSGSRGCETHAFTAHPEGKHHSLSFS

human JAK2, sequence (O60674 whole entry): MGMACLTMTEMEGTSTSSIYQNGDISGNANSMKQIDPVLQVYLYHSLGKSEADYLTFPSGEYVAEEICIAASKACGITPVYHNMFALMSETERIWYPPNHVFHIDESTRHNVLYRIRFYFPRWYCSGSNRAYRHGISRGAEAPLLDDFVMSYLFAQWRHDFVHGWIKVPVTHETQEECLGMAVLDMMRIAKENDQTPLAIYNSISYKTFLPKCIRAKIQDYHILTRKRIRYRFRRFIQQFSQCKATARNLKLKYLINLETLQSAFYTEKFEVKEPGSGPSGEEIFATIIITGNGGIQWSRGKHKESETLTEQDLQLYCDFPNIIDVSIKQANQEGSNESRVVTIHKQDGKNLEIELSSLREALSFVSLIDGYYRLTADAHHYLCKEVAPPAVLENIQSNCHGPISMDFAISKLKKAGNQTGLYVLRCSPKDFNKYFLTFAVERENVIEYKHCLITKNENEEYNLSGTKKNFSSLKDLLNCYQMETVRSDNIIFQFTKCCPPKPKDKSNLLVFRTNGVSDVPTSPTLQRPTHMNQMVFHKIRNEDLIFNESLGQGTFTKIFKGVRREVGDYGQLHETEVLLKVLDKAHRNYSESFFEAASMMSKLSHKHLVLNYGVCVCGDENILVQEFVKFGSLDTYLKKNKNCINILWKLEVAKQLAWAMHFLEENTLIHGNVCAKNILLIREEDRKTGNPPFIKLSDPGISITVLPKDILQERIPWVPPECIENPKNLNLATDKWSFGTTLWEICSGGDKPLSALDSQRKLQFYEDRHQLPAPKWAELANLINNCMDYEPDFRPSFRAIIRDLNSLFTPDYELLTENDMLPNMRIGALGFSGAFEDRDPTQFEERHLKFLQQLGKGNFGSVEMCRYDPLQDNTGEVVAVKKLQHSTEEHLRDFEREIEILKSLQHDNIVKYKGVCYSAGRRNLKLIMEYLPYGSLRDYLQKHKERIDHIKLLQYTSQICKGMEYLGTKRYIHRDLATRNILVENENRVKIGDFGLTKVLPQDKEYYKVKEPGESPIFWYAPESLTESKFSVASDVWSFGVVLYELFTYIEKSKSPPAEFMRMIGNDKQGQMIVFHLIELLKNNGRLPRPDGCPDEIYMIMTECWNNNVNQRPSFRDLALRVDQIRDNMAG
human JAK1, sequence (P23458 whole entry): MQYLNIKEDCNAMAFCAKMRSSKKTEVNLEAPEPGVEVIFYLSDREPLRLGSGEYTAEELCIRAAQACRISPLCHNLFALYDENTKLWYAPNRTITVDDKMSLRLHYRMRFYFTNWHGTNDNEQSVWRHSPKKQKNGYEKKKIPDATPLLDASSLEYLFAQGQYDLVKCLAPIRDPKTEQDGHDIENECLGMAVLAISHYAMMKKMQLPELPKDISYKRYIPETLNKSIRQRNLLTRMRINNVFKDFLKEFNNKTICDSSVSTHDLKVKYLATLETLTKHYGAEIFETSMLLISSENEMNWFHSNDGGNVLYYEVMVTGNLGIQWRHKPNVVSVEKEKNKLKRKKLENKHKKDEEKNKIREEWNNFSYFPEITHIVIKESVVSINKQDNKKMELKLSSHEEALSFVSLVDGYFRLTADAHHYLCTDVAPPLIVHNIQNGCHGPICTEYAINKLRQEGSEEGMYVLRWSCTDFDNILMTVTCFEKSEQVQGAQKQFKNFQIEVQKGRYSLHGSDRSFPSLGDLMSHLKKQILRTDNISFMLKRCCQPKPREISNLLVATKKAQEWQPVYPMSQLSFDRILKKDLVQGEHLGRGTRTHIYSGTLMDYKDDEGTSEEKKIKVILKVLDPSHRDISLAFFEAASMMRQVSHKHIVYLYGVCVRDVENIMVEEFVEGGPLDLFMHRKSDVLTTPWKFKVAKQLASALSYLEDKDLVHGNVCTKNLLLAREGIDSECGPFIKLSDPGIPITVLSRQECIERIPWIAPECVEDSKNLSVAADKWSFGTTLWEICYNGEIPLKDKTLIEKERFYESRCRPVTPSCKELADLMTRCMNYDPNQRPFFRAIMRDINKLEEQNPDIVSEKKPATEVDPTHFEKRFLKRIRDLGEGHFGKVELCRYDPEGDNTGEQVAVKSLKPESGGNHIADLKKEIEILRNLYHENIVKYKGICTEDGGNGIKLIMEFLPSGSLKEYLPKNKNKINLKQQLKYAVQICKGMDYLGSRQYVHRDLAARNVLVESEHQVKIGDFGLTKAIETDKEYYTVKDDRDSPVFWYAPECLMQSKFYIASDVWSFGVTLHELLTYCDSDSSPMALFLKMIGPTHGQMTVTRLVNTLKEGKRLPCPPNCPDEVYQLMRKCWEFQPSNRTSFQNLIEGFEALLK
TYK2 JH2 domain, sequence (P29597 589-875): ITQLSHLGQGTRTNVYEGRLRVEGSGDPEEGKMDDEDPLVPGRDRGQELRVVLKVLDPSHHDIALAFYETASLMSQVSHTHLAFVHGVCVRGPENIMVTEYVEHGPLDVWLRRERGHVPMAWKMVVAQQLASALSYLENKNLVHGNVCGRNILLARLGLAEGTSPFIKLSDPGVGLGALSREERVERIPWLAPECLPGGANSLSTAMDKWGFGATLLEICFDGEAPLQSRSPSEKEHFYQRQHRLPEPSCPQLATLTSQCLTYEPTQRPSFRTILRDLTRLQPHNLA

Row | SMILES | IC50 (TYK2 JH2 domain) | IC50 (human JAK1) | IC50 (human JAK2) | IC50 (human JAK3)
1 | CCC(=O)c1cnc(Nc2ccn([C@H]3C[C@@H](OC)C3)n2)cc1Nc1cccc(-c2ncn(C)n2)c1OC [Compound 21A, 1-(4-((2-methoxy-3-(1-methyl-1H-1,2,4-triazol-3-yl)phenyl)amino)-6-((1-(3-methoxycyclobutyl)-1H-pyrazol-3-yl)amino)pyridin-3-yl)propan-1-one] | 5 to 50 nM | ≥ 500 nM | ≥ 500 nM | ≥ 500 nM
2 | CCC(=O)c1cnc(Nc2cc(OCCO)n(C)n2)cc1Nc1cccc(-c2ncn(C)n2)c1OC [Compound 21AA] | 5 to 50 nM | ≥ 500 nM | ≥ 500 nM | 50 to 500 nM
3 | CCC(=O)c1cnc(Nc2ccn([C@H]3C[C@@H](OC(F)F)C3)n2)cc1Nc1cccc(-c2ncn(C)n2)c1OC [Compound 21BB] | < 5 nM | ≥ 500 nM | ≥ 500 nM | ≥ 500 nM
4 | CCC(=O)c1cnc(Nc2ccn(CCOC)n2)cc1Nc1cccc(-c2ncn(C)n2)c1OC [Compound 21B] | 5 to 50 nM | ≥ 500 nM | ≥ 500 nM | ≥ 500 nM
5 | CCO[C@H]1C[C@@H](n2ccc(Nc3cc(Nc4cccc(-c5ncn(C)n5)c4OC)c(C(=O)CC)cn3)n2)C1 [Compound 21CC] | 5 to 50 nM | ≥ 500 nM | ≥ 500 nM | ≥ 500 nM
6 | CCC(=O)c1cnc(Nc2ccn(CCN3CCCC3)n2)cc1Nc1cccc(-c2ncn(C)n2)c1OC [Compound 21C] | 5 to 50 nM | ≥ 500 nM | ≥ 500 nM | ≥ 500 nM
7 | CCC(=O)c1cnc(Nc2cc(C)n([C@H]3C[C@@H](O)C3)n2)cc1Nc1cccc(-c2ncn(C)n2)c1OC [Compound 21DD] | 5 to 50 nM | ≥ 500 nM | ≥ 500 nM | ≥ 500 nM
8 | CCC(=O)c1cnc(Nc2ccn(S(=O)(=O)C3CC3)n2)cc1Nc1cccc(-c2ncn(C)n2)c1OC [Compound 21D] | 5 to 50 nM | ≥ 500 nM | ≥ 500 nM | ≥ 500 nM
9 | CCC(=O)c1cnc(Nc2cc(C)n([C@H]3C[C@@H](OC)C3)n2)cc1Nc1cccc(-c2ncn(C)n2)c1OC [Compound 21EE] | < 5 nM | ≥ 500 nM | ≥ 500 nM | ≥ 500 nM
10 | CCC(=O)c1cnc(Nc2ccn(-c3ccccn3)n2)cc1Nc1cccc(-c2ncn(C)n2)c1OC [Compound 21E] | < 5 nM | ≥ 500 nM | ≥ 500 nM | ≥ 500 nM
11 | CCO[C@H]1C[C@@H](n2nc(Nc3cc(Nc4cccc(-c5ncn(C)n5)c4OC)c(C(=O)CC)cn3)cc2C)C1 [Compound 21FF] | < 5 nM | ≥ 500 nM | ≥ 500 nM | ≥ 500 nM
12 | CCC(=O)c1cnc(Nc2csc(CN3CCCC3)n2)cc1Nc1cccc(-c2ncn(C)n2)c1OC [Compound 21F] | 5 to 50 nM | ≥ 500 nM | ≥ 500 nM | ≥ 500 nM
13 | CCC(=O)c1cnc(Nc2ccn(C3CC(F)(F)C3)n2)cc1Nc1cccc(-c2ncn(C)n2)c1OC [Compound 21GG] | 5 to 50 nM | ≥ 500 nM | ≥ 500 nM | ≥ 500 nM
14 | CCC(=O)c1cnc(Nc2cc(CN3CCCC3)n(C)n2)cc1Nc1cccc(-c2ncn(C)n2)c1OC [Compound 21G] | < 5 nM | ≥ 500 nM | 50 to 500 nM | 50 to 500 nM
15 | CCC(=O)c1cnc(Nc2nc(CN3CCCC3)ns2)cc1Nc1cccc(-c2ncn(C)n2)c1OC [Compound 21H] | 50 to 500 nM | ≥ 500 nM | ≥ 500 nM | ≥ 500 nM
16 | CCC(=O)c1cnc(Nc2cc(CN3CCCC3)sn2)cc1Nc1cccc(-c2ncn(C)n2)c1OC [Compound 21I] | < 5 nM | ≥ 500 nM | 50 to 500 nM | 50 to 500 nM
17 | CCC(=O)c1cnc(Nc2ccn([C@H]3C[C@@H](O)C3)n2)cc1Nc1cccc(-c2ncn(C)n2)c1OC [Compound 21J] | 5 to 50 nM | ≥ 500 nM | ≥ 500 nM | ≥ 500 nM
18 | CCC(=O)c1cnc(Nc2ccn([C@H]3C[C@H](OC)C3)n2)cc1Nc1cccc(-c2ncn(C)n2)c1OC [Compound 21L] | 5 to 50 nM | ≥ 500 nM | ≥ 500 nM | ≥ 500 nM
19 | CCC(=O)c1cnc(Nc2ccn(CCC#N)n2)cc1Nc1cccc(-c2ncn(C)n2)c1OC [Compound 21M] | 5 to 50 nM | ≥ 500 nM | ≥ 500 nM | 50 to 500 nM
20 | CCC(=O)c1cnc(Nc2ccn([C@H]3C[C@@H](C#N)C3)n2)cc1Nc1cccc(-c2ncn(C)n2)c1OC [Compound 21N] | 5 to 50 nM | ≥ 500 nM | ≥ 500 nM | ≥ 500 nM
21 | CCC(=O)c1cnc(Nc2cn([C@H]3C[C@@H](O)C3)cn2)cc1Nc1cccc(-c2ncn(C)n2)c1OC [Compound 21P] | 5 to 50 nM | ≥ 500 nM | ≥ 500 nM | ≥ 500 nM
22 | CCC(=O)c1cnc(Nc2ccn(CC3(C)COC3)n2)cc1Nc1cccc(-c2ncn(C)n2)c1OC [Compound 21Q] | 50 to 500 nM | ≥ 500 nM | ≥ 500 nM | 50 to 500 nM
23 | CCC(=O)c1cnc(Nc2ccn(CC3COC3)n2)cc1Nc1cccc(-c2ncn(C)n2)c1OC [Compound 21R] | 5 to 50 nM | ≥ 500 nM | ≥ 500 nM | 50 to 500 nM
24 | CCC(=O)c1cnc(Nc2ccn(CC3CCCO3)n2)cc1Nc1cccc(-c2ncn(C)n2)c1OC (stereo not drawn) [Compound 21S] | 5 to 50 nM | ≥ 500 nM | ≥ 500 nM | ≥ 500 nM
25 | CCC(=O)c1cnc(NC(=O)C2CC2c2cnn(C)c2)cc1Nc1cccc(-c2ncn(C)n2)c1OC (stereo not drawn) [Compound 22A, N-(4-((2-methoxy-3-(1-methyl-1H-1,2,4-tliazol-3-yl)phenyl)amino)-5-propionylpyridin-2-yl)-2-(1-methyl-1H-pyrazol-4-yl)cyclopropane-1-carboxamide] | 5 to 50 nM | ≥ 500 nM | ≥ 500 nM | ≥ 500 nM

Other lines, results leading:

Row | IC50 (TYK2 JH2 domain) | IC50 (human JAK1) | IC50 (human JAK2) | IC50 (human JAK3) | SMILES
26 | 5 to 50 nM | ≥ 500 nM | ≥ 500 nM | ≥ 500 nM | CCC(=O)c1cnc(Nc2ccn(CC3CCOC3)n2)cc1Nc1cccc(-c2ncn(C)n2)c1OC (stereo not drawn) [Compound 21T]
27 | 50 to 500 nM | ≥ 500 nM | 50 to 500 nM | 50 to 500 nM | CCC(=O)c1cnc(Nc2ccn(CC3(CO)COC3)n2)cc1Nc1cccc(-c2ncn(C)n2)c1OC [Compound 21U]
28 | 50 to 500 nM | ≥ 500 nM | ≥ 500 nM | ≥ 500 nM | CCC(=O)c1cnc(Nc2ccn(CC3CCO3)n2)cc1Nc1cccc(-c2ncn(C)n2)c1OC (stereo not drawn) [Compound 21V]
29 | 5 to 50 nM | ≥ 500 nM | ≥ 500 nM | ≥ 500 nM | CCC(=O)c1cnc(Nc2ccn(C[C@H]3C[C@@H](O)C3)n2)cc1Nc1cccc(-c2ncn(C)n2)c1OC [Compound 21W]
30 | 50 to 500 nM | ≥ 500 nM | ≥ 500 nM | ≥ 500 nM | CCC(=O)c1cnc(Nc2ccn(CC3CN(C)C3)n2)cc1Nc1cccc(-c2ncn(C)n2)c1OC [Compound 21X]
31 | 5 to 50 nM | ≥ 500 nM | 50 to 500 nM | 50 to 500 nM | CCC(=O)c1cnc(Nc2cc(OC)n(CCOC)n2)cc1Nc1cccc(-c2ncn(C)n2)c1OC [Compound 21Y]
32 | 5 to 50 nM | ≥ 500 nM | ≥ 500 nM | 50 to 500 nM | CCC(=O)c1cnc(Nc2cc(C)n(CCOC)n2)cc1Nc1cccc(-c2ncn(C)n2)c1OC [Compound 21Z]
33 | 50 to 500 nM | ≥ 500 nM | ≥ 500 nM | ≥ 500 nM | CCC(=O)c1cnc(NC(=O)C2CC2c2ccccn2)cc1Nc1cccc(-c2ncn(C)n2)c1OC (stereo not drawn) [Compound 22B]
34 | ≥ 500 nM | ≥ 500 nM | ≥ 500 nM | ≥ 500 nM | CCC(=O)c1cnc(NC(=O)[C@@H]2C[C@H]2C(=O)O)cc1Nc1cccc(-c2ncn(C)n2)c1OC [Compound 22C]
35 | 5 to 50 nM | ≥ 500 nM | ≥ 500 nM | ≥ 500 nM | CCC(=O)c1cnc(NC(=O)[C@@H]2C[C@H]2CN(C)C)cc1Nc1cccc(-c2ncn(C)n2)c1OC [Compound 22D]
36 | ≥ 500 nM | ≥ 500 nM | ≥ 500 nM | ≥ 500 nM | CCC(=O)c1cnc(NC(=O)[C@@H]2C[C@H]2C(N)=O)cc1Nc1cccc(-c2ncn(C)n2)c1OC [Compound 22E]
37 | ≥ 500 nM | ≥ 500 nM | ≥ 500 nM | ≥ 500 nM | CCC(=O)c1cnc(NC(=O)[C@@H]2C[C@@H]2C(N)=O)cc1Nc1cccc(-c2ncn(C)n2)c1OC [Compound 22G]
38 | ≥ 500 nM | ≥ 500 nM | ≥ 500 nM | ≥ 500 nM | CCC(=O)c1cnc(NC(=O)[C@@H]2C[C@H]2NC(=O)OC(C)(C)C)cc1Nc1cccc(-c2ncn(C)n2)c1OC [Compound 22H]
39 | ≥ 500 nM | ≥ 500 nM | ≥ 500 nM | ≥ 500 nM | CCC(=O)c1cnc(NC(=O)[C@@H]2C[C@H]2NC(C)=O)cc1Nc1cccc(-c2ncn(C)n2)c1OC [Compound 22I]
40 | ≥ 500 nM | ≥ 500 nM | ≥ 500 nM | ≥ 500 nM | CCC(=O)c1cnc(NC(=O)[C@@H]2C[C@@H]2NC(=O)OC(C)(C)C)cc1Nc1cccc(-c2ncn(C)n2)c1OC [Compound 22J]
41 | ≥ 500 nM | ≥ 500 nM | ≥ 500 nM | ≥ 500 nM | CCC(=O)c1cnc(NC(=O)[C@@H]2C[C@@H]2NC(C)=O)cc1Nc1cccc(-c2ncn(C)n2)c1OC [Compound 22K]
42 | ≥ 500 nM | ≥ 500 nM | ≥ 500 nM | ≥ 500 nM | CCC(=O)c1cnc(NC(=O)[C@@H]2C[C@H]2CC#N)cc1Nc1cccc(-c2ncn(C)n2)c1OC [Compound 22L]
